Our source for the Kd values is patent US20260234112A1, “COMPOUNDS, COMPOSITIONS, AND METHODS OF USE THEREOF” (Type6 Therapeutics, Inc., priority 2023, published 2026).

This assay addresses T1, Cdk2(2-298) (Homo sapiens, UniProt P24941).
T1 construct: Biotinylated N-terminal avi-tagged Cdk2(2-298) or Cdk1(1-297) was immobilized
The assay can be described thus: Surface Plasmon Resonance (SPR) compound interaction, Biacore 8K. Format: binding. As to conditions: single-cycle kinetics (SCK, "S"), dissociation 1800 sec, read-out: Activity rating (KD). On the procedure: Compound interaction was profiled using a Biacore 8K instrument (Cytiva). Biotinylated N-terminal avi-tagged Cdk2(2-298) or Cdk1(1-297) was immobilized on a series S sensor Chip SA at a capture level between 2500 RU and 3000 RU (Cdk2) or 7000 RU (Cdk1) in buffer (25 mM HEPES, 150 mM NaCl, 0.05% Tween20, pH 7.5). A compound dilution plate (8 concentrations, 3-fold dilution) in DMSO was prepared (100× assay concentration). From this plate, compound DMSO stock solution was transferred into buffer, yielding a final DMSO concentration of 1% in assay. The remaining buffer was supplemented with 1% DMSO. Compounds were injected in a series of increasing concentrations in multi-cycle kinetics (MCK, “M”) or single-cycle kinetics (SCK, “S”) mode at a flow rate of 30 μl/min for 120 sec and dissociation was profiled for 180 sec (MCK) or 1800 sec (SCK). Data were analysed using Biacore Insight Evaluation Software (Cytiva).
For `N[C@H]1CC[C@H](Nc2nccc(-c3ccccc3Oc3ccc(NS(=O)(=O)c4ccccc4)cc3F)n2)CC1` [Compound 1, N-[4-[2-[2-[(1r,4r)(4-Aminocyclohexyl)amino]pyrimidin-4-yl]phenoxy]-3-fluoro-phenyl] benzenesulfonamide], the Kd was in the range of 11 to 100 nM. With `O=S(=O)(Nc1ccc(Oc2ccccc2-c2ccnc(N[C@H]3CCCNC3)n2)c(F)c1)c1ccccc1` [Compound 2, N-[3-Fluoro-4-[2-[2-[[(3S)-3-piperidyl]amino]pyrimidin-4-yl]phenoxy]phenyl] benzenesulfonamide], the Kd lay within 1000 to 5000 nM. For `N[C@H]1CC[C@H](Nc2nccc(-c3ccccc3Oc3ccc(NS(=O)(=O)c4ccccc4Cl)cc3F)n2)CC1` [Compound 3, N-[4-[2-[2-[(1r,4r)(4-Aminocyclohexyl)amino]pyrimidin-4-yl]phenoxy]-3-fluorophenyl] 2-chlorobenzenesulfonamide], the dissociation constant (Kd) lay within 11 to 100 nM.

`N[C@H]1CC[C@H](Nc2nccc(-c3ccccc3Oc3ccc(NS(=O)(=O)c4cccc5ccccc45)cc3F)n2)CC1` [Compound 4, N-[4-[2-[2-[(1r,4r)(4-Aminocyclohexyl)amino]pyrimidin-4-yl]phenoxy]-3-fluorophenyl] naphthalene-1-sulfonamide]: the dissociation constant Kd is 100 to 1000 nM. With `O=S(=O)(Nc1ccc(Oc2ccccc2-c2ccnc(N[C@H]3CCCNC3)n2)c(F)c1)c1ccccc1Cl` [Compound 5, N-[3-Fluoro-4-[2-[2-[[(3S)-3-piperidyl]amino]pyrimidin-4-yl]phenoxy]phenyl] 2-chlorobenzenesulfonamide] the figure was at most 10 nM; with `O=S(=O)(Nc1ccc(Oc2ccccc2-c2ccnc(N[C@H]3CCCNC3)n2)c(F)c1)c1cccc2ccccc12` [Compound 6, N-[3-Fluoro-4-[2-[2-[[(3S)-3-piperidyl]amino]pyrimidin-4-yl]phenoxy]phenyl] naphthalene-1-sulfonamide], 100 to 1000 nM; with `Cc1ccc(Oc2ccc(NS(=O)(=O)c3ccccc3Cl)cc2F)c(-c2ccnc(N[C@H]3CC[C@H](N)CC3)n2)c1` [Compound 7, N-[4-[2-[2-[(1r,4r)(4-Aminocyclohexyl)amino]pyrimidin-4-yl]-4-methylphenoxy]-3-fluorophenyl] 2-chlorobenzenesulfonamide], 11 to 100 nM. For the compound `N[C@H]1CC[C@H](Nc2nccc(-c3cc(C(F)(F)F)ccc3Oc3ccc(NS(=O)(=O)c4ccccc4Cl)cc3F)n2)CC1` [Compound 8, N-[4-[2-[2-[(1r,4r)(4-Aminocyclohexyl)amino]pyrimidin-4-yl]-4-(trifluoromethyl)phenoxy]-3-fluorophenyl] 2-chlorobenzenesulfonamide], the Kd was 11 to 100 nM.

Consider `Cc1ccc(-c2ccnc(N[C@H]3CC[C@H](N)CC3)n2)c(Oc2ccc(NS(=O)(=O)c3ccccc3Cl)cc2F)c1` [Compound 9, N-[4-[2-[2-[(1r,4r)(4-Aminocyclohexyl)amino]pyrimidin-4-yl]-5-methylphenoxy]-3-fluorophenyl] 2-chlorobenzenesulfonamide], for which the dissociation constant (Kd) lay within 11 to 100 nM.

On to `N#Cc1ccc(Oc2ccc(NS(=O)(=O)c3ccccc3Cl)cc2F)c(-c2ccnc(N[C@H]3CC[C@H](N)CC3)n2)c1` [Compound 10, N-[4-[2-[2-[(1r,4r)(4-Aminocyclohexyl)amino]pyrimidin-4-yl]-4-cyanophenoxy]-3-fluorophenyl] 2-chlorobenzenesulfonamide], for which the dissociation constant Kd lay in the range of 11 to 100 nM. Consider `CC(C)(C)c1ccc(-c2ccnc(N[C@H]3CC[C@H](N)CC3)n2)c(Oc2ccc(NS(=O)(=O)c3ccccc3Cl)cc2F)c1` [Compound 11, N-[4-[2-[2-[(1r,4r)(4-Aminocyclohexyl)amino]pyrimidin-4-yl]-5-(1,1-dimethylethyl)phenoxy]-3-fluorophenyl] 2-chlorobenzenesulfonamide], for which the Kd was 11 to 100 nM.

For the compound `N[C@H]1CC[C@H](Nc2nccc(-c3ccc(I)cc3Oc3ccc(NS(=O)(=O)c4ccccc4Cl)cc3F)n2)CC1` [Compound 16, N-[4-[2-[2-[(1r,4r)(4-Aminocyclohexyl)amino]pyrimidin-4-yl]-5-iodophenoxy]-3-fluorophenyl] 2-chlorobenzenesulfonamide], the Kd is 11 to 100 nM.

`CCc1ccc(-c2ccnc(N[C@H]3CC[C@H](N)CC3)n2)c(Oc2ccc(NS(=O)(=O)c3ccccc3Cl)cc2F)c1` [Compound 17, N-[4-[2-[2-[(1r,4r)(4-Aminocyclohexyl)amino]pyrimidin-4-yl]-5-ethylphenoxy]-3-fluorophenyl] 2-chlorobenzenesulfonamide]: the Kd fell in the range of 11 to 100 nM. In the case of `N[C@H]1CC[C@H](Nc2nccc(-c3ccc(-c4ccccc4)cc3Oc3ccc(NS(=O)(=O)c4ccccc4Cl)cc3F)n2)CC1` [Compound 18, N-[4-[2-[2-[(1r,4r)(4-Aminocyclohexyl)amino]pyrimidin-4-yl]-5-phenylphenoxy]-3-fluorophenyl] 2-chlorobenzenesulfonamide], the Kd is above 5000 nM. The value for `N[C@H]1CC[C@H](Nc2nccc(-c3ccc(C4CC4)cc3Oc3ccc(NS(=O)(=O)c4ccccc4Cl)cc3F)n2)CC1` [Compound 19, N-[4-[2-[2-[(1r,4r)(4-Aminocyclohexyl)amino]pyrimidin-4-yl]-5-cyclopropylphenoxy]-3-fluorophenyl] 2-chlorobenzenesulfonamide] was 11 to 100 nM; that for `CC(C)c1ccc(-c2ccnc(N[C@H]3CC[C@H](N)CC3)n2)c(Oc2ccc(NS(=O)(=O)c3ccccc3Cl)cc2F)c1` [Compound 20, N-[4-[2-[2-[(1r,4r)(4-Aminocyclohexyl)amino]pyrimidin-4-yl]-5-(1-methylethyl)phenoxy]-3-fluorophenyl] 2-chlorobenzenesulfonamide] was 11 to 100 nM. For the compound `C=Cc1ccc(-c2ccnc(N[C@H]3CC[C@H](N)CC3)n2)c(Oc2ccc(NS(=O)(=O)c3ccccc3Cl)cc2F)c1` [Compound 21, N-[4-[2-[2-[(1r,4r)(4-Aminocyclohexyl)amino]pyrimidin-4-yl]-5-ethenylphenoxy]-3-fluorophenyl] 2-chlorobenzenesulfonamide], the Kd lay in the range of 11 to 100 nM. Regarding `N[C@H]1CC[C@H](Nc2nccc(-c3ccc(C4CCCCC4)cc3Oc3ccc(NS(=O)(=O)c4ccccc4Cl)cc3F)n2)CC1` [Compound 22, N-[4-[2-[2-[(1r,4r)(4-Aminocyclohexyl)amino]pyrimidin-4-yl]-5-cyclohexylphenoxy]-3-fluorophenyl] 2-chlorobenzenesulfonamide], the dissociation constant (Kd) lay within 11 to 100 nM. Regarding `N[C@H]1CC[C@H](Nc2nccc(-c3cc4ccccc4cc3Oc3ccc(NS(=O)(=O)c4ccccc4Cl)cc3F)n2)CC1` [Compound 23, N-[4-[2-[2-[(1r,4r)(4-Aminocyclohexyl)amino]pyrimidin-4-yl]naphthyl-3-oxy]-3-fluorophenyl] 2-chlorobenzenesulfonamide], the dissociation constant Kd was at most 10 nM. With `N[C@H]1CC[C@H](Nc2nccc(-c3cnccc3Oc3ccc(NS(=O)(=O)c4ccccc4Cl)cc3F)n2)CC1` [Compound 24, N-[4-[[3-[2-(1r,4r)[(4-aminocyclohexyl)amino]pyrimidin-4-yl]-4-pyridyl]oxy]-3-fluoro-phenyl]-2-chloro-benzenesulfonamide], the equilibrium dissociation constant (Kd) was at most 10 nM. Turning to `O=S(=O)(Nc1ccc(Oc2ccncc2-c2ccnc(N[C@H]3CCCNC3)n2)cc1F)c1ccccc1Cl` [Compound 25, N-[2-Fluoro-4-[[3-[2-[[(3S)-3-piperidyl]amino]pyrimidin-4-yl]-4-pyridyl]oxy]phenyl] 2-chlorobenzenesulfonamide], the Kd fell in the range of 11 to 100 nM.
